From patent publication US10793568B2, “Hormone receptor modulators for treating metabolic conditions and disorders” (ARDELYX, INC., priority 2016, dated 2020)
Read-outs that look alike come from different tables or passages of the source.

How the values were obtained:
[1] = molecular target: human Farnesoid X receptor ligand-binding domain/Gal4 DNA binding domain chimera (Homo sapiens (Human), UniProt Q96RI1); test: Cell-based assay of FXR activation (FXR-UAS-bla HEK 293T beta-lactamase reporter); details: cellular FXR beta-lactamase reporter assay; for Emax: HEK-293T, read-out: % Efficacy; for Emax / % Efficacy: extent of activation relative to GW4064; for EC50 / pEC50: FXR-UAS-bla HEK 293T cells, 16 h, pEC50 = -log EC50
Chain of human Farnesoid X receptor ligand-binding domain/Gal4 DNA binding domain chimera (Q96RI1 262-486, change not shown): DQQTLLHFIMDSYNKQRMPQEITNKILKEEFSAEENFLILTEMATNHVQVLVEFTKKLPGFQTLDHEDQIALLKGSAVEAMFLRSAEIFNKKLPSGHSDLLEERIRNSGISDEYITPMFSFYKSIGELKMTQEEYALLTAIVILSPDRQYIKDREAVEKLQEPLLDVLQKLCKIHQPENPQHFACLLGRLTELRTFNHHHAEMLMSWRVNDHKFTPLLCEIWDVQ
Chain of human Farnesoid X receptor ligand-binding domain/Gal4 DNA binding domain chimera (P04386 1-147 partner): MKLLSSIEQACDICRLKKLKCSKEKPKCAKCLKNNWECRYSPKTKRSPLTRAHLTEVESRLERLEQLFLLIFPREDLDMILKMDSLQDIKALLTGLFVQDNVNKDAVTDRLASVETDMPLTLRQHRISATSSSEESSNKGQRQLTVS
In short: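 Readout is cleavage of the CCF4 FRET substrate (409 nm excitation, blue 447 nm signal) by beta-lactamase, expressed under UAS control after a Gal4–human FXR LBD chimera is activated in HEK 293T cells. Compounds were added as 3-fold dilutions for 16 h at 37 °C in 2% charcoal-stripped FBS medium. Curves were fit to a 3-parameter logistic equation to give pEC50, with % activation relative to GW4064.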

[2] = molecular target: ligand binding domain of human FXR (Homo sapiens (Human), UniProt Q96RI1); test: FXR ligand binding assay (LanthaScreen TR-FRET, SRC2-2 peptide recruitment); details: for Emax: read-out: % Efficacy
Chain of ligand binding domain of human FXR (Q96RI1 262-486): as the sequence (Q96RI1 262-486, change not shown) above

[3] = -log EC50, concentration required to produce 50% activation
[4] = extent of activation relative to GW4064

Row | Compound | Emax [1] | EC50 [1] | pEC50 [2, 3] | Emax [2, 4] | Emax [2] | EC50 [2, 3] | pEC50 [1] | % Efficacy [1] | % Efficacy [2, 4]
1 | O=C(NS(=O)(=O)CCCO)c1ccc(N2C[C@@H]3C[C@H]2C[C@H]3OCc2c(-c3c(Cl)cccc3Cl)noc2C2CC2)cc1 [Compound I-215, 4-[(1S,4S,5R)-5-{[5-cyclopropyl-3-(2,6-dichlorophenyl)-1,2-oxazol-4-yl]methoxy}-2-azabicyclo[2.2.1]heptan-2-yl]-N-(3-hydroxypropanesulfonyl)benzamide] | 107% | 1.58 nM | 8.6 | 142% | – | – | – | – | –
2 | CC(=O)OC(C)CCS(=O)(=O)NC(=O)c1ccc(N2C[C@@H]3C[C@H]2C[C@H]3OCc2c(-c3c(Cl)cccc3Cl)noc2C2CC2)cc1 (stereo partly drawn) [Compound I-216, 4-[({4-[(1S,4S,5R)-5-{[5-cyclopropyl-3-(2,6-dichlorophenyl)-1,2-oxazol-4-yl]methoxy}-2-azabicyclo[2.2.1]heptan-2-yl]phenyl}formamido)sulfonyl]butan-2-yl Acetate] | 112% | 0.398 nM | 9.4 | – | 145% | – | – | – | –
3 | CC(O)CCS(=O)(=O)NC(=O)c1ccc(N2C[C@@H]3C[C@H]2C[C@H]3OCc2c(-c3c(Cl)cccc3Cl)noc2C2CC2)cc1 (stereo partly drawn) [Compound I-217, 4-[(1S,4S,5R)-5-{[5-cyclopropyl-3-(2,6-dichlorophenyl)-1,2-oxazol-4-yl]methoxy}-2-azabicyclo[2.2.1]heptan-2-yl]-N-(3-hydroxybutanesulfonyl)benzamide] | 111% | 1 nM | 9.9 | – | 142% | – | – | – | –
4 | CC(CCS(=O)(=O)NC(=O)c1ccc(N2C[C@@H]3C[C@H]2C[C@H]3OCc2c(-c3c(Cl)cccc3Cl)noc2C2CC2)cc1)OC(=O)CCC(=O)O (stereo partly drawn) [Compound I-218, 4-({4-[({4-[(1S,4S,5R)-5-{[5-cyclopropyl-3-(2,6-dichlorophenyl)-1,2-oxazol-4-yl]methoxy}-2-azabicyclo[2.2.1]heptan-2-yl]phenyl}formamido)sulfonyl]butan-2-yl}oxy)-4-oxobutanoic Acid] | 101% | 5.01 nM | – | 146% | – | 2.51 nM | – | – | –
5 | O=C(NS(=O)(=O)CCC(O)CO)c1ccc(N2C[C@@H]3C[C@H]2C[C@H]3OCc2c(-c3c(Cl)cccc3Cl)noc2C2CC2)cc1 (stereo partly drawn) [Compound I-219, 4-[(1S,4S,5R)-5-{[5-cyclopropyl-3-(2,6-dichlorophenyl)-1,2-oxazol-4-yl]methoxy}-2-azabicyclo[2.2.1]heptan-2-yl]-N-(3,4-dihydroxybutanesulfonyl)benzamide] | 104% | 39.8 nM | 8.6 | 144% | – | – | – | – | –
6 | O=C(NS(=O)(=O)[C@H]1CC[C@@H](O)CC1)c1ccc(N2C[C@@H]3C[C@H]2C[C@H]3OCc2c(-c3c(Cl)cccc3Cl)noc2C2CC2)cc1 [Compound I-220, 4-[(1S,4S,5R)-5-{[5-cyclopropyl-3-(2,6-dichlorophenyl)-1,2-oxazol-4-yl]methoxy}-2-azabicyclo[2.2.1]heptan-2-yl]-N-{[(1s,4s)-4-hydroxycyclohexyl]sulfonyl}benzamide] | – | – | 8.7 | – | – | – | 9.6 | 108% | 154%
7 | O=C(NS(=O)(=O)[C@H]1CC[C@H](O)CC1)c1ccc(N2C[C@@H]3C[C@H]2C[C@H]3OCc2c(-c3c(Cl)cccc3Cl)noc2C2CC2)cc1 [Compound I-221, 4-[(1S,4S,5R)-5-{[5-cyclopropyl-3-(2,6-dichlorophenyl)-1,2-oxazol-4-yl]methoxy}-2-azabicyclo[2.2.1]heptan-2-yl]-N-{[(1r,4r)-4-hydroxycyclohexyl]sulfonyl}benzamide] | – | – | 8.8 | – | – | – | 9.5 | 108% | 147%
8 | O=C(NS(=O)(=O)CCCCCCCCCCNC(=O)[C@H](O)[C@@H](O)[C@H](O)[C@H](O)CO)c1ccc(N2C[C@@H]3C[C@H]2C[C@H]3OCc2c(-c3c(Cl)cccc3Cl)noc2C2CC2)c(F)c1 [Compound I-223, (2R,3S,4R,5R)—N-{10-[({4-[(1S,4S,5R)-5-{[5-cyclopropyl-3-(2,6-dichlorophenyl)-1,2-oxazol-4-yl]methoxy}-2-azabicyclo[2.2.1]heptan-2-yl]-3-fluorophenyl}formamido)sulfonyl]decyl}-2,3,4,5,6-pentahydroxyhexanamide] | – | < 31.6 nM | 8.6 | 144% | – | – | – | – | –
9 | CC(=O)NCCCCCCCCCCS(=O)(=O)NC(=O)c1ccc(N2C[C@@H]3C[C@H]2C[C@H]3OCc2c(-c3c(Cl)cccc3Cl)noc2C2CC2)c(F)c1 [Compound I-224, N-{10-[({4-[(1S,4S,5R)-5-{[5-cyclopropyl-3-(2,6-dichlorophenyl)-1,2-oxazol-4-yl]methoxy}-2-azabicyclo[2.2.1]heptan-2-yl]-3-fluorophenyl}formamido)sulfonyl]decyl}acetamide] | 104% | 2.51 nM | 8.1 | 155% | – | – | – | – | –
10 | COCC(=O)NCCCCCCCCCCS(=O)(=O)NC(=O)c1ccc(N2C[C@@H]3C[C@H]2C[C@H]3OCc2c(-c3c(Cl)cccc3Cl)noc2C2CC2)c(F)c1 [Compound I-225, N-{10-[({4-[(1S,4S,5R)-5-{[5-cyclopropyl-3-(2,6-dichlorophenyl)-1,2-oxazol-4-yl]methoxy}-2-azabicyclo[2.2.1]heptan-2-yl]-3-fluorophenyl}formamido)sulfonyl]decyl}-2-methoxyacetamide] | 103% | 2 nM | 9.5 | 166% | – | – | – | – | –
11 | CC[N+](C)(CC)CCCCCCCCCCS(=O)(=O)NC(=O)c1ccc(N2C[C@@H]3C[C@H]2C[C@H]3OCc2c(-c3c(Cl)cccc3Cl)noc2C2CC2)c(F)c1 [Compound I-226] | 152% | – | – | 148% | – | – | 6.6 | – | –
12 | O=C(NS(=O)(=O)CCCCCCCCCCN1CCC1)c1ccc(N2C[C@@H]3C[C@H]2C[C@H]3OCc2c(-c3c(Cl)cccc3Cl)noc2C2CC2)c(F)c1 [Compound I-227, N-[10-(azetidin-1-yl)decanesulfonyl]-4-[(1S,4S,5R)-5-{[5-cyclopropyl-3-(2,6-dichlorophenyl)-1,2-oxazol-4-yl]methoxy}-2-azabicyclo[2.2.1]heptan-2-yl]-3-fluorobenzamide] | 97% | 1 nM | 8.1 | 163% | – | – | – | – | –
13 | O=C(NS(=O)(=O)C1CC1)c1ccc(N2C[C@@H]3C[C@H]2C[C@H]3OCc2c(C3CCC4(CC3)CC4)noc2C2CC2)cc1 [Compound I-228, 4-((1S,4S,5R)-5-((5-cyclopropyl-3-(spiro[2.5]octan-6-yl)isoxazol-4-yl)methoxy)-2-azabicyclo[2.2.1]heptan-2-yl)-N-(cyclopropylsulfonyl)benzamide] | 105% | 20 nM | 7 | 134% | – | – | – | – | –
14 | O=C(NS(=O)(=O)C1CC1)c1ccc(N2C[C@@H]3C[C@H]2C[C@H]3OCc2c(C3CCC4(CC3)CC4)noc2C2CC2)c(F)c1 [Compound I-229, 4-((1S,4S,5R)-5-((5-cyclopropyl-3-(spiro[2.5]octan-6-yl)isoxazol-4-yl)methoxy)-2-azabicyclo[2.2.1]heptan-2-yl)-N-(cyclopropylsulfonyl)-3-fluorobenzamide] | 101% | 39.8 nM | 7.4 | 150% | – | – | – | – | –
15 | O=C(NS(=O)(=O)C1CCOCC1)c1ccc(N2C[C@@H]3C[C@H]2C[C@H]3OCc2c(C3CCC4(CC3)CC4)noc2C2CC2)c(F)c1 [Compound I-230, 4-((1S,4S,5R)-5-((5-cyclopropyl-3-(spiro[2.5]octan-6-yl)isoxazol-4-yl)methoxy)-2-azabicyclo[2.2.1]heptan-2-yl)-3-fluoro-N-((tetrahydro-2H-pyran-4-yl)sulfonyl)benzamide] | 104% | 6.31 nM | 8 | 150% | – | – | – | – | –
16 | O=C(NS(=O)(=O)C1CC1)c1ccc(N2C[C@H]3C[C@@H]2C[C@@H]3OCc2c(-c3c(Cl)cccc3Cl)noc2C2CC2)c(F)c1 [Compound I-231, 4-((1R,4R,5S)-5-((5-cyclopropyl-3-(2,6-dichlorophenyl)isoxazol-4-yl)methoxy)-2-azabicyclo[2.2.1]heptan-2-yl)-N-(cyclopropylsulfonyl)-3-fluorobenzamide] | 106% | 15.8 nM | 8.4 | 110% | – | – | – | – | –
17 | O=C(NS(=O)(=O)C1CC1)c1ccc(N2C[C@H]3C[C@@H]2C[C@@H]3OCc2c(-c3c(Cl)cccc3Cl)noc2C2CC2)cc1 [Compound I-232, 4-((1R,4R,5S)-5-((5-cyclopropyl-3-(2,6-dichlorophenyl)isoxazol-4-yl)methoxy)-2-azabicyclo[2.2.1]heptan-2-yl)-N-(cyclopropylsulfonyl)benzamide] | 93% | 25.1 nM | 8.1 | 126% | – | – | – | – | –
18 | Cn1nc(C(=O)NS(=O)(=O)C2CC2)cc1N1C[C@@H]2C[C@H]1C[C@H]2OCc1c(-c2c(Cl)cccc2Cl)noc1C1CC1 [Compound I-233, N-(cyclopropanesulfonyl)-5-[(1S,4S,5R)-5-{[5-cyclopropyl-3-(2,6-dichlorophenyl)-1,2-oxazol-4-yl]methoxy}-2-azabicyclo[2.2.1]heptan-2-yl]-1-methyl-1H-pyrazole-3-carboxamide] | – | < 31.6 nM | 7.8 | 77% | – | – | – | – | –
19 | O=C(NS(=O)(=O)C1CC1)c1ccc([N+]2([O-])C[C@@H]3C[C@H]2C[C@H]3OCc2c(-c3c(Cl)cccc3Cl)noc2C2CC2)cc1 (stereo partly drawn) [Compound I-234, (1S,4S,5R)-2-{4-[(cyclopropanesulfonyl)carbamoyl]phenyl}-5-{[5-cyclopropyl-3-(2,6-dichlorophenyl)-1,2-oxazol-4-yl]methoxy}-2-azabicyclo[2.2.1]heptan-2-ium-2-olate] | 102% | 1.58 nM | 8.1 | 146% | – | – | – | – | –
